How the values were obtained:
MDA-MB-468 = settings: 72 h
Method in brief: (§1)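 Breast cancer cell lines (20 µl suspension) were seeded into 384-well plates holding compound at 5 concentrations in 10-fold steps over a compound-specific 10,000-fold range, then incubated 72 h. Cell death was read first by CellTox Green fluorescence (485/520 nm), then viability by CellTiter-Glo luminescence after 10 min at room temperature. Each plate was normalised to 0.1 % DMSO and a positive kill control. EC50 was fitted from the dose-response curves and censored at the top concentration.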

BT-474 = settings: 72 h
Method in brief: as §1

HDQ-P1 = settings: 72 h
Method in brief: as §1

MCF-10A = experiment: drug sensitivity score (DSS), CellTox Green (DSS (AUC-based score)); higher = stronger drug effect (viability inhibition or cytotoxicity); extreme values may be limits of the assay; settings: incubation time: 72 h
Method in brief: (§2)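 Breast cancer cells were seeded into 384-well plates containing compound at 5 concentrations in 10-fold steps over a compound-specific 10,000-fold range and incubated 72 h. After CellTox Green and CellTiter-Glo readings, each plate was normalised to 0.1 % DMSO and a positive kill control. The drug sensitivity score rests on the area under the fitted dose-response curve.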

HCC1599 = experiment: as above; settings: incubation time: 72 h
Method in brief: as §2

CAL-120 = experiment: as above; settings: incubation time: 72 h
Method in brief: as §2

Hs578T = experiment: as above; settings: incubation time: 72 h
Method in brief: as §2

Row | SMILES | EC50, CellTiter-Glo (MDA-MB-468) | EC50, CellTiter-Glo (BT-474) | EC50, CellTiter-Glo (HDQ-P1) | drug sensitivity score (MCF-10A) | drug sensitivity score (HCC1599) | drug sensitivity score (CAL-120) | drug sensitivity score (Hs578T)
1 | Cn1cc(C2=Nc3cc(NC(=O)C(N)C4CCCCC4)cc4c3C2=CNNC4=O)cn1 (centres undefined) | 396 nM | 2290 nM | 9680 nM | 16.2 | 0 | 1.7 | 1.58
2 | COc1cc2c(cc1O)CC[C@@H]1[C@@H]2CC[C@]2(C)[C@@H](O)CC[C@@H]12 [2-methoxyestradiol] | 2800 nM | 573 nM | 7460 nM | 1.69 | 0 | 0.794 | 8.52
3 | Cc1sc2c(c1C)C(c1ccc(Cl)cc1)=N[C@@H](CC(=O)OC(C)(C)C)c1nnc(C)n1-2 [(+)JQ1] | 487 nM | 113 nM | 129 nM | 0 | 0 | 1.56 | 0
4 | Nc1ncn([C@@H]2O[C@H](CO)[C@@H](O)[C@H]2O)c(=O)n1 [Azacitidine] | 574 nM | 2290 nM | 2470 nM | 0 | 0 | 0 | 0
5 | CC(=O)N(O)CCCCCNC(=O)CCC(=O)N(O)CCCCCNC(=O)CCC(=O)N(O)CCCCCN [Deferoxamine] | 815 nM |  | 1850 nM | 0 | 0 | 0 | 0
6 | CC(=O)O[C@@]12CO[C@@H]1C[C@H](O)[C@@]1(C)C(=O)[C@H](O)C3=C(C)[C@@H](OC(=O)[C@H](O)[C@@H](NC(=O)OC(C)(C)C)c4ccccc4)C[C@@](O)([C@@H](OC(=O)c4ccccc4)[C@H]21)C3(C)C [Docetaxel] | 0.68 nM | 7.47 nM | 2.08 nM | 19.1 | 0 | 0.904 | 19.2
7 | C[C@]1(O)C[C@@H](c2nc(-c3ccc4ccc(-c5ccccc5)nc4c3)c3c(N)nccn32)C1 [Linsitinib] | 4140 nM | 1090 nM | 1010 nM | 0 | 0 | 0 | 2.22
8 | Cc1ccc([N+](=O)[O-])cc1S(=O)(=O)N(C)/N=C/c1cnc2ccc(Br)cn12 [PIK-75] | 27.4 nM | 26.1 nM | 32.5 nM | 32.7 | 7.69 | 2.85 | 25.2
9 | CC(=O)c1c(C)c2cnc(Nc3ccc(N4CCNCC4)cn3)nc2n(C2CCCC2)c1=O [Palbociclib] | 181 nM | 352 nM |  | 0 | 0 | 0 | 0

Second part, led by results:

Row | EC50, CellTiter-Glo (MDA-MB-468) | EC50, CellTiter-Glo (BT-474) | SMILES | EC50, CellTiter-Glo (HDQ-P1) | drug sensitivity score (MCF-10A) | drug sensitivity score (HCC1599) | drug sensitivity score (CAL-120) | drug sensitivity score (Hs578T)
10 | 2240 nM | 644 nM | COc1cc(F)c(F)c(Nc2ccc(I)cc2F)c1NS(=O)(=O)C1(C[C@H](O)CO)CC1 [Refametinib] | 119 nM | 0 | 0 | 0.239 | 0
11 | 36 nM | 112 nM | CC(C)(C)c1cnc(CSc2cnc(NC(=O)C3CCNCC3)s2)o1 [SNS-032] | 50 nM | 16.3 | 0 | 0 | 17.1
12 | 5030 nM | 361 nM | Cn1cnc2c(F)c(Nc3ccc(Br)cc3Cl)c(C(=O)NOCCO)cc21 [Selumetinib] | 44.8 nM | 0 | 0 | 2 | 0
13 | 9670 nM | 197 nM | Nc1nc2[nH]cnc2c(=S)[nH]1 [Thioguanine] | 2970 nM | 0 | 0 | 0 | 0

From the supplement of paper PMC4862054
